Experimental data from PMC10600247, “Impact of C- and N-terminal protection on the stability, metal chelation and antimicrobial properties of calcitermin” (Scientific Reports, 2023).
Residues, ends and D or L forms follow the SMILES beside them.

Experiments:
E. coli (ATCC 25922) = assay: In vitro anti-E. coli CFU assay; type: cell-based, Escherichia coli; settings: pH 5.4; for mean CFU number ± S.D.: per 0.1 mL
In short: (§1)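 Peptides (final 0.128, 0.064, 0.032 mg/mL), alone or with ZnCl2 or CuCl2 at M:L 0.9:1, were incubated with 10^3 CFU/well in PBS pH 5.4 plus 1.5% TSB at 37 °C with slow rocking for 3 and 24 h. Aliquots were plated on TSA and CFU counted after 24 h; triplicate.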

C. albicans (ATCC 10231) = assay: In vitro antifungal CFU assay; type: cell-based, Candida albicans; settings: pH 5.4; for mean CFU number ± S.D.: per 0.1 mL
In short: as §1

[1] = peptide 0.032 mg/mL + CuCl2 (0.9:1), 3 h
[2] = peptide 0.032 mg/mL + CuCl2 (0.9:1), 24 h
[3] = peptide 0.032 mg/mL + ZnCl2 (0.9:1), 3 h
[4] = peptide 0.032 mg/mL + ZnCl2 (0.9:1), 24 h
[5] = peptide 0.064 mg/mL + CuCl2 (0.9:1), 3 h
[6] = peptide 0.064 mg/mL + CuCl2 (0.9:1), 24 h
[7] = peptide 0.064 mg/mL + ZnCl2 (0.9:1), 3 h
[8] = peptide 0.064 mg/mL + ZnCl2 (0.9:1), 24 h
[9] = peptide 0.128 mg/mL + CuCl2 (0.9:1), 3 h
[10] = peptide 0.128 mg/mL + CuCl2 (0.9:1), 24 h
[11] = peptide 0.128 mg/mL + ZnCl2 (0.9:1), 3 h, listed as WT calcitermin
[12] = peptide 0.128 mg/mL + ZnCl2 (0.9:1), 3 h
[13] = peptide 0.128 mg/mL + ZnCl2 (0.9:1), 24 h
[14] = peptide alone 0.032 mg/mL, 24 h
[15] = peptide alone 0.064 mg/mL, 24 h
[16] = peptide alone 0.128 mg/mL, 24 h

Structure (SMILES): CC[C@H](C)[C@H](NC(=O)[C@H](C)NC(=O)[C@@H](N)C(C)C)C(=O)N[C@@H](C)C(=O)N[C@@H](CC(C)C)C(=O)N[C@@H](CCCCN)C(=O)N[C@@H](C)C(=O)N[C@@H](C)C(=O)N[C@@H](Cc1c[nH]cn1)C(=O)N[C@@H](Cc1ccc(O)cc1)C(=O)N[C@@H](Cc1c[nH]cn1)C(=O)N[C@H](C(=O)N[C@@H](Cc1c[nH]cn1)C(=O)N[C@@H](CCCCN)C(=O)N[C@@H](CCC(=O)O)C(=O)O)[C@@H](C)O [WT, VAIALKAAHYHTHKE, reference compound] (H-VAIALKAAHYHTHKE-OH)
- CFU decrease/increase with respect to untreated controls (E. coli (ATCC 25922); peptide 0.032 mg/mL + CuCl2 (0.9:1), 3 h, listed as WT calcitermin): -38%
- mean CFU number ± S.D. (E. coli (ATCC 25922); [1]): 505 ± 26 CFU
- CFU decrease/increase with respect to untreated controls (E. coli (ATCC 25922); [2]): -21%
- mean CFU number ± S.D. (E. coli (ATCC 25922); [2]): 191 ± 23 CFU
- CFU decrease/increase with respect to untreated controls (E. coli (ATCC 25922); peptide 0.032 mg/mL + ZnCl2 (0.9:1), 3 h, listed as WT calcitermin): -38%
- mean CFU number ± S.D. (E. coli (ATCC 25922); [3]): 499 ± 104 CFU
- CFU decrease/increase with respect to untreated controls (E. coli (ATCC 25922); [4]): -7%
- mean CFU number ± S.D. (E. coli (ATCC 25922); [4]): 224 ± 8 CFU
- CFU decrease/increase with respect to untreated controls (E. coli (ATCC 25922); peptide 0.064 mg/mL + CuCl2 (0.9:1), 3 h, listed as WT calcitermin): -56%
- mean CFU number ± S.D. (E. coli (ATCC 25922); [5]): 360 ± 97 CFU
- CFU decrease/increase with respect to untreated controls (E. coli (ATCC 25922); [6]): -11%
- mean CFU number ± S.D. (E. coli (ATCC 25922); [6]): 215 ± 17 CFU
- CFU decrease/increase with respect to untreated controls (E. coli (ATCC 25922); peptide 0.064 mg/mL + ZnCl2 (0.9:1), 3 h, listed as WT calcitermin): -55%
- mean CFU number ± S.D. (E. coli (ATCC 25922); [7]): 368 ± 18 CFU
- CFU decrease/increase with respect to untreated controls (E. coli (ATCC 25922); [8]): +3%
- mean CFU number ± S.D. (E. coli (ATCC 25922); [8]): 249 ± 9 CFU
- CFU decrease/increase with respect to untreated controls (E. coli (ATCC 25922); peptide 0.128 mg/mL + CuCl2 (0.9:1), 3 h, listed as WT calcitermin): -91.1%
- mean CFU number ± S.D. (E. coli (ATCC 25922); [9]): 72 ± 44 CFU
- CFU decrease/increase with respect to untreated controls (E. coli (ATCC 25922); peptide 0.128 mg/mL + CuCl2 (0.9:1), 24 h, listed as WT calcitermin): -82%
- mean CFU number ± S.D. (E. coli (ATCC 25922); [10]): 42 ± 12 CFU
- CFU decrease/increase with respect to untreated controls (E. coli (ATCC 25922); [11]): -91%
- mean CFU number ± S.D. (E. coli (ATCC 25922); [12]): 74 ± 17 CFU
- CFU decrease/increase with respect to untreated controls (E. coli (ATCC 25922); [13]): -8%
- mean CFU number ± S.D. (E. coli (ATCC 25922); [13]): 222 ± 16 CFU
- CFU decrease/increase with respect to untreated controls (E. coli (ATCC 25922); peptide alone 0.032 mg/mL, 3 h): -12%
- mean CFU number ± S.D. (E. coli (ATCC 25922); peptide alone 0.032 mg/mL, 3 h): 718 ± 138 CFU
- CFU decrease/increase with respect to untreated controls (E. coli (ATCC 25922); [14]): -7%
- mean CFU number ± S.D. (E. coli (ATCC 25922); [14]): 224 ± 21 CFU
- CFU decrease/increase with respect to untreated controls (E. coli (ATCC 25922); peptide alone 0.064 mg/mL, 3 h): -19%
- mean CFU number ± S.D. (E. coli (ATCC 25922); peptide alone 0.064 mg/mL, 3 h): 659 ± 139 CFU
- CFU decrease/increase with respect to untreated controls (E. coli (ATCC 25922); [15]): +14%
- mean CFU number ± S.D. (E. coli (ATCC 25922); [15]): 275 ± 16 CFU
- CFU decrease/increase with respect to untreated controls (E. coli (ATCC 25922); peptide alone 0.128 mg/mL, 3 h): +42%
- mean CFU number ± S.D. (E. coli (ATCC 25922); peptide alone 0.128 mg/mL, 3 h): 1155 ± 270 CFU
- CFU decrease/increase with respect to untreated controls (E. coli (ATCC 25922); [16]): -3%
- mean CFU number ± S.D. (E. coli (ATCC 25922); [16]): 233 ± 10 CFU
- CFU decrease/increase with respect to untreated controls (C. albicans (ATCC 10231); [1]): -12%
- mean CFU number ± S.D. (C. albicans (ATCC 10231); [1]): 74 ± 28 CFU
- CFU decrease/increase with respect to untreated controls (C. albicans (ATCC 10231); [2]): -0.4%
- mean CFU number ± S.D. (C. albicans (ATCC 10231); [2]): 1,771 ± 309 CFU
- CFU decrease/increase with respect to untreated controls (C. albicans (ATCC 10231); [3]): -20%
- mean CFU number ± S.D. (C. albicans (ATCC 10231); [3]): 67 ± 35 CFU
- CFU decrease/increase with respect to untreated controls (C. albicans (ATCC 10231); [4]): -31%
- mean CFU number ± S.D. (C. albicans (ATCC 10231); [4]): 1,235.8 ± 235 CFU
- CFU decrease/increase with respect to untreated controls (C. albicans (ATCC 10231); [5]): +1%
- mean CFU number ± S.D. (C. albicans (ATCC 10231); [5]): 85 ± 24 CFU
- CFU decrease/increase with respect to untreated controls (C. albicans (ATCC 10231); [6]): -16%
- mean CFU number ± S.D. (C. albicans (ATCC 10231); [6]): 1,489 ± 111 CFU
- CFU decrease/increase with respect to untreated controls (C. albicans (ATCC 10231); [7]): -43%
- mean CFU number ± S.D. (C. albicans (ATCC 10231); [7]): 48.3 ± 22 CFU
- CFU decrease/increase with respect to untreated controls (C. albicans (ATCC 10231); [8]): -58%
- mean CFU number ± S.D. (C. albicans (ATCC 10231); [8]): 754.3 ± 323 CFU
- CFU decrease/increase with respect to untreated controls (C. albicans (ATCC 10231); [9]): -35%
- mean CFU number ± S.D. (C. albicans (ATCC 10231); [9]): 55 ± 11 CFU
- CFU decrease/increase with respect to untreated controls (C. albicans (ATCC 10231); [10]): -0.6%
- mean CFU number ± S.D. (C. albicans (ATCC 10231); [10]): 1,790 ± 393 CFU
- CFU decrease/increase with respect to untreated controls (C. albicans (ATCC 10231); [11]): -49%
- mean CFU number ± S.D. (C. albicans (ATCC 10231); [12]): 42.7 ± 11 CFU
- CFU decrease/increase with respect to untreated controls (C. albicans (ATCC 10231); peptide 0.128 mg/mL + ZnCl2 (0.9:1), 24 h, listed as WT calcitermin): -96%
- mean CFU number ± S.D. (C. albicans (ATCC 10231); [13]): 62.8 ± 33 CFU
- CFU decrease/increase with respect to untreated controls (C. albicans (ATCC 10231); peptide alone 0.032 mg/mL, 3 h, listed as WT calcitermin): -67%
- mean CFU number ± S.D. (C. albicans (ATCC 10231); peptide alone 0.032 mg/mL, 3 h): 28 ± 15 CFU
- CFU decrease/increase with respect to untreated controls (C. albicans (ATCC 10231); [14]): -24%
- mean CFU number ± S.D. (C. albicans (ATCC 10231); [14]): 1,348± 698 CFU
- CFU decrease/increase with respect to untreated controls (C. albicans (ATCC 10231); peptide alone 0.064 mg/mL, 3 h, listed as WT calcitermin): -67%
- mean CFU number ± S.D. (C. albicans (ATCC 10231); peptide alone 0.064 mg/mL, 3 h): 28 ± 15 CFU
- CFU decrease/increase with respect to untreated controls (C. albicans (ATCC 10231); [15]): -33%
- mean CFU number ± S.D. (C. albicans (ATCC 10231); [15]): 1,289 ± 495 CFU
- CFU decrease/increase with respect to untreated controls (C. albicans (ATCC 10231); peptide alone 0.128 mg/mL, 3 h, listed as WT calcitermin): -73%
- mean CFU number ± S.D. (C. albicans (ATCC 10231); peptide alone 0.128 mg/mL, 3 h): 22.4 ± 15 CFU
- CFU decrease/increase with respect to untreated controls (C. albicans (ATCC 10231); [16]): -41%
- mean CFU number ± S.D. (C. albicans (ATCC 10231); [16]): 1,052 ± 531 CFU
